Experimental findings from patent publication US7998989B2, “2-Imino-1,3-thiazoline-based compounds and T-type calcium channel inhibitors containing the same” (Korea Institute of Science and Technology, priority 2007, dated 2011) are described below.

The target in data set [1] is T1, α1G T-type calcium channel (Homo sapiens, UniProt O43497).
T1 construct: host or cells: HEK293
The data set can be described thus: Assay for % inhibiting activity against T-type calcium channel using FDSS6000 (fluo-3 calcium imaging, KCl activation). It counts as cell-based. The gist of the method: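 HEK293 cells stably expressing α1G and Kir2.1 loaded with 5 μM fluo-3/AM, then in HEPES buffer (pH 7.4) with 10 mM CaCl2. Compound applied 75 s before 75 mM KCl; intracellular Ca2+ read as […] area, % inhibition relative to untreated control.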

Setting [2] is: HEK293, 10 μM, HEK293 cells stably expressing α1G T-type calcium channel and Kir2.1, compounds of the examples, read-out: FDSS (% inhibition)/10uM.
Setting [3] is: 10 μM, FDSS (% inhibition), comparative compounds where R6 is a phenyl group, read-out: FDSS.

Where two headings read alike, the source gives them in different places.

Usually melting point stands for the temperature, or range, at which the solid turns liquid.

T1 sequence (O43497 whole entry): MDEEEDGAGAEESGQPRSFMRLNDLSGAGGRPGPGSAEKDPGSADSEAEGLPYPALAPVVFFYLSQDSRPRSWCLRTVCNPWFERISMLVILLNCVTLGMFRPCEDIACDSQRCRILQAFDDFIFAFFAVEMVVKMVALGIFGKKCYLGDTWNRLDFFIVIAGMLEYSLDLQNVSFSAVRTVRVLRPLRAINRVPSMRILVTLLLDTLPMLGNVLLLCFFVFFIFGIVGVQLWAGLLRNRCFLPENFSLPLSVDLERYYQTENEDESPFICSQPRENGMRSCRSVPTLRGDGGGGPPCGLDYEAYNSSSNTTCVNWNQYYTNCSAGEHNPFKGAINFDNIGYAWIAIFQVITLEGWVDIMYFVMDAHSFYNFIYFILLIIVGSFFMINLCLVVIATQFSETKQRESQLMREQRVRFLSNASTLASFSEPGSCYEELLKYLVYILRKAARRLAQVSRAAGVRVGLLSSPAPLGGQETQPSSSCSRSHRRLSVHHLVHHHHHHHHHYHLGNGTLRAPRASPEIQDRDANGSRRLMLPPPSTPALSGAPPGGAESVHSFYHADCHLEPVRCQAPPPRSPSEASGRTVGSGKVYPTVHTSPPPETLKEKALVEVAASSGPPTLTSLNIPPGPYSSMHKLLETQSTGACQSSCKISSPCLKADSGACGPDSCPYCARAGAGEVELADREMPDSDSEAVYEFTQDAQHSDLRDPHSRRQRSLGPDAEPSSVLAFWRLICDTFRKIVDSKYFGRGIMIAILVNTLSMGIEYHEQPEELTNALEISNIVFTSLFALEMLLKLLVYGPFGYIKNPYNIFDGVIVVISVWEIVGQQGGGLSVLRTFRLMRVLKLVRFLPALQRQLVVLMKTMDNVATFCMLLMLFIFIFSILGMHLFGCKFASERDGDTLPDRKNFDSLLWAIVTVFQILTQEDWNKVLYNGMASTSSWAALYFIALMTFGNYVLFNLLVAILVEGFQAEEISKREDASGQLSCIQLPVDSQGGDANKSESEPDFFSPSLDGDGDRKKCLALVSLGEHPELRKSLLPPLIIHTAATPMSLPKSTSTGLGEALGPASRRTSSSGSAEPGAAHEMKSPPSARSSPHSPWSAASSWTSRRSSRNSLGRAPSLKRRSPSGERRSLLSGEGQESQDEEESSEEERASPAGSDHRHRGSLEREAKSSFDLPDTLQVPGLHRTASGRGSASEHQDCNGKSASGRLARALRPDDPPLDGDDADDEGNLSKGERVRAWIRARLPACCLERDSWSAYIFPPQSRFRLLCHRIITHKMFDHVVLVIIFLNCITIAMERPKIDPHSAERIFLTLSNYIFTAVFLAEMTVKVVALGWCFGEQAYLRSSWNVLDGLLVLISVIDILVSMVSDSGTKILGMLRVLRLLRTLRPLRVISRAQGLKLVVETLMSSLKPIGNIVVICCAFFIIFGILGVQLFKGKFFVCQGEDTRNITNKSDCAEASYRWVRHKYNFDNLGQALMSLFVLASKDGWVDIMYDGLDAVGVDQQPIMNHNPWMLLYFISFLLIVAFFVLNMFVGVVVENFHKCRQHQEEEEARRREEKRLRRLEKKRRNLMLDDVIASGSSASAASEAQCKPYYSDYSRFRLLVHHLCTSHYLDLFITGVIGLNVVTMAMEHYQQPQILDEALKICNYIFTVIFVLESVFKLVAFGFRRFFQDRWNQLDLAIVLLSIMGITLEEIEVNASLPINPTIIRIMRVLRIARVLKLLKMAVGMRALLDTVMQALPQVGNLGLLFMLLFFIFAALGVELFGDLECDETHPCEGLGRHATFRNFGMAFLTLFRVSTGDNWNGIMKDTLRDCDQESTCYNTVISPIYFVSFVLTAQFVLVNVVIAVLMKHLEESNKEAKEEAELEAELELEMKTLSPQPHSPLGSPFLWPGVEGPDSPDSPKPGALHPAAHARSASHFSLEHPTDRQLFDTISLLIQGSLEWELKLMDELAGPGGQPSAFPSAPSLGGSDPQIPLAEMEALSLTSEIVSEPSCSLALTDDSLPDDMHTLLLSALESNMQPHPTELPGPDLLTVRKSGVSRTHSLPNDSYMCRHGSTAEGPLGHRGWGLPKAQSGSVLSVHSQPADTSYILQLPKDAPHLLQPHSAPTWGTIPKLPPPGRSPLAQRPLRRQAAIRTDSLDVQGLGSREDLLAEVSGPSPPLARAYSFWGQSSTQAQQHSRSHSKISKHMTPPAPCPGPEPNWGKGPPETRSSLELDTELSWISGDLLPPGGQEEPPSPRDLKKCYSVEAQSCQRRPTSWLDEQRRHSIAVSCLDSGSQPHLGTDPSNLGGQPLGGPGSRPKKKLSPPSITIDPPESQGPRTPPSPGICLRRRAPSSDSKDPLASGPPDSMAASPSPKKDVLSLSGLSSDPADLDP

In turn, `CN1C(=NCCc2ccccc2)SCC1CC(=O)Nc1ccc(Oc2ccccc2)cc1.Cl` (stereo not drawn) [KHG24224, (2-phenethylimino-3-methyl-1,3-thiazolidine-4-yl)-N-(4-phenoxyphenyl)-acetamide hydrochloride] yielded a melting point of 225.5 °C. For the same molecule, in data set [1] (setting [2]), the inhibition at 10 µM is 32%.

For `CCCCN1C(=NC2CCCCC2)SCC1CC(=O)Nc1ccc(CC)cc1.Cl` (stereo not drawn) [KHG24286, [2-cyclohexylimino-3-(n-butyl)-1,3-thiazolidine-4-yl]-N-(4-ethylphenyl)-acetamide hydrochloride], the melting point turned out to be 221.2 °C. In addition, the inhibition at 10 µM in data set [1] (setting [2]) was determined as 55.2%.

Molecule `CN1C(=NC2CCCCC2)SCC1CC(=O)Nc1cccc([N+](=O)[O-])c1.Cl` (stereo not drawn) [KHG24108, (2-cyclohexylimino-3-methyl-1,3-thiazolidine-4-yl)-N-(3-nitrophenyl)-acetamide hydrochloride] came in with a melting point of 207 °C. Further, the inhibition at 10 µM in data set [1] (setting [2]) is 44.4%.

In turn, `CC1SC(=NC2CCCCCC2)N(C)C1CC(=O)Nc1ccc(F)cc1.Cl` (stereo not drawn) [KHG24518, (2-cycloheptylimino-3,5-dimethyl-1,3-thiazolidine-4-yl)-N-(4-fluorophenyl)-acetamide hydrochloride] yielded a melting point of 229 to 231 °C. Also, the inhibition at 10 µM in data set [1] (setting [2]) turned out to be 50.7%.

`CCCCc1ccc(NC(=O)CC2CSC(=NC3CCCC3)N2C)cc1.Cl` (stereo not drawn) [KHG24116, (2-cyclopentylimino-3-methyl-1,3-thiazolidine-4-yl)-N-(4-n-butylphenyl)-acetamide hydrochloride] displayed a melting point of 216 to 217.5 °C. Further, the inhibition at 10 µM in data set [1] (setting [2]) worked out at 65.4%.

Molecule `CN1C(=Nc2ccc(Br)cc2)SCC1CC(=O)Nc1ccc(Cl)cc1F.Cl` (stereo not drawn) [KHG23065, [2-(4-bromophenylimino)-3-methyl-1,3-thiazolidine-4-yl]-N-(4-chloro-2-fluorophenyl)-acetamide hydrochloride] yielded a melting point of 239 to 240 °C. In addition, the inhibition at 10 µM in data set [1] (setting [3]) was 3.57%.

The molecule `CN1C(=NC2CCCC2)SCC1CC(=O)NCc1ccc(Cl)cc1.Cl` (stereo not drawn) [KHG24157, (2-cyclopentylimino-3-methyl-1,3-thiazolidine-4-yl)-N-(4-chlorobenzyl)-acetamide hydrochloride] yielded a melting point of 180 to 182 °C. Besides, in data set [1] (setting [2]), the inhibition at 10 µM is 36.7%.

For the molecule `CC1SC(=NC2CCCCCC2)N(C)C1CC(=O)Nc1cc(Cl)cc(Cl)c1.Cl` (stereo not drawn) [KHG24644, (2-cycloheptylimino-3,5-dimethyl-1,3-thiazolidine-4-yl)-N-(3,5-dichlorophenyl)-acetamide hydrochloride], the melting point lay within 248 to 250 °C. The inhibition at 10 µM in data set [1] (setting [2]) stood at 53.4%.

The molecule `CN1C(=Nc2cccc([N+](=O)[O-])c2)SCC1CC(=O)Nc1ccc(Cl)cc1.Cl` (stereo not drawn) [KHG21655, [2-(3-nitrophenylimino)-3-methyl-1,3-thiazolidine-4-yl]-N-(4-chlorophenyl)-acetamide hydrochloride] registered a melting point of 228 °C. Further, in data set [1] (setting [3]), the inhibition at 10 µM turned out to be 4.68%.

Regarding `CN1C(=NC2CCCCC2)SCC1CC(=O)Nc1cccc(Cl)c1Cl.Cl` (stereo not drawn) [KHG24530, (2-cyclohexylimino-3-methyl-1,3-thiazolidine-4-yl)-N-(2,3-dichlorophenyl)-acetamide hydrochloride], the melting point was determined as 215 °C. In addition, the inhibition at 10 µM in data set [1] (setting [2]) came to 38.5%.

The molecule `CN1C(=NC2CCCCC2)SCC1CC(=O)NCc1ccc(Cl)c(Cl)c1.Cl` (stereo not drawn) [KHG24088, (2-cyclohexylimino-3-methyl-1,3-thiazolidine-4-yl)-N-(3,4-dichlorobenzyl)-acetamide hydrochloride] yielded a melting point of 215 to 216 °C. In addition, in data set [1] (setting [2]), the inhibition at 10 µM was 43.2%.

Regarding `CN1C(=Nc2ccc(Cl)cc2)SCC1CC(=O)Nc1ccc(Cl)cc1F.Cl` (stereo not drawn) [KHG23064, [2-(4-chlorophenylimino)-3-methyl-1,3-thiazolidine-4-yl]-N-(4-chloro-2-fluorophenyl)-acetamide hydrochloride], the melting point was in the range of 239 to 240 °C. Further, the inhibition at 10 µM in data set [1] (setting [3]) came out at 7.37%.
